Like-named read-outs stand apart in the source and are kept apart here.
Columns and labels:
TF-VIIa = target: T1, TF-VIIa (Homo sapiens, UniProt P08709); assay: TF-VIIa Assay; format: biochemical
T1 construct: 2nM recombinant human factor VIIa; purchased American Diagnostica, Greenwich CT; host or cells: soluble TF made in house in E. coli

Human factor Xa = Human factor Xa (Homo sapiens, UniProt P00742); assay: Xa Assay; conditions: for IC50 or % Inhibition Factor Xa (30 µM): % inhibition at 30 µM; for IC50: read-out: IC50 or % Inhibition Factor Xa (30 µM), cells given as a plain number (IC50)
Human factor Xa, sequence (P00742 235-488 limits assumed): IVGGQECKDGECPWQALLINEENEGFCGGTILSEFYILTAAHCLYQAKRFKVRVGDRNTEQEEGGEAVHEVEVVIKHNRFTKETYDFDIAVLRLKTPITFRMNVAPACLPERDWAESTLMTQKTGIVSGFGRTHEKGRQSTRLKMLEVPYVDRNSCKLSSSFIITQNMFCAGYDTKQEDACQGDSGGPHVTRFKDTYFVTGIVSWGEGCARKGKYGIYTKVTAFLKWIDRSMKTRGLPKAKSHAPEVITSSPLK
Human factor Xa, sequence (P00742 41-179 limits assumed): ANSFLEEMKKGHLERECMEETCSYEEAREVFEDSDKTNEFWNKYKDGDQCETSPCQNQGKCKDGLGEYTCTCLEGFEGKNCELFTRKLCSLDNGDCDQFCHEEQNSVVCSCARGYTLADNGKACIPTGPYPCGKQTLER

[1] = cells given as a plain number (IC50); read-out: IC50 or % Inhibition TF-VIIa (30 µM)
[2] = read-out: IC50 or % Inhibition TF-VIIa (30 µM); cells given as a plain number (IC50)

T1 sequence (P08709 213-466 limits assumed): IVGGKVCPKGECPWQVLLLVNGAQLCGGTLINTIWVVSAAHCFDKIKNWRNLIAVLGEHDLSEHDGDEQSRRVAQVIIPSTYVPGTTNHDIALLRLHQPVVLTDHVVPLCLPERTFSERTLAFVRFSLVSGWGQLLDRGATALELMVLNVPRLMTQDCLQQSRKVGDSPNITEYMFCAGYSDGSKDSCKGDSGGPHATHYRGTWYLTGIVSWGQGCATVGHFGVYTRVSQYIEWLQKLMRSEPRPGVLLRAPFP
T1 sequence (P08709 61-212 limits assumed): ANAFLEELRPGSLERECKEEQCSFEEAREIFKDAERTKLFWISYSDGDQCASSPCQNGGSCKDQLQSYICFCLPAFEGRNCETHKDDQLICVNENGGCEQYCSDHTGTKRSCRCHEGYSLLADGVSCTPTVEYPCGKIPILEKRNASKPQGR
T1 sequence (P13726 33-251 partner limits assumed): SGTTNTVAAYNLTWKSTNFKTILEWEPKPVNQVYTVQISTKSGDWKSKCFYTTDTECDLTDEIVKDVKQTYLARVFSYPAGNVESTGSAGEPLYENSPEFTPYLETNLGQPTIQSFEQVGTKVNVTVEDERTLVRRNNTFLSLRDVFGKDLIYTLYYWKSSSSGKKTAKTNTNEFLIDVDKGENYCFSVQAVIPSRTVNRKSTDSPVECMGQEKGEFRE

Compound | IC50 (TF-VIIa; [1]) | IC50 or % Inhibition Factor Xa (30 µM) (Human factor Xa) | IC50 (TF-VIIa; [2]) | IC50 (Human factor Xa) | IC50 or % Inhibition TF-VIIa (30 µM) (TF-VIIa)
N=C(N)c1ccc(CNC(=O)Cn2c(-c3ccccc3)c(Cl)nc(NCCc3ccncc3)c2=O)cc1 [1471-13] | 1.47 µM | 0% | – | – | –
N=C(N)c1ccc(CNC(=O)Cn2c(-c3cccc(Cl)c3)c(Cl)nc(NCc3ccccc3)c2=O)cc1 [1471-25] | – | 31% | – | – | –
N=C(N)c1ccc(CNC(=O)Cn2c(-c3ccccc3)c(Cl)nc(NCc3ccc(OC(F)(F)F)cc3)c2=O)cc1 [1507-04] | – | – | 29.5 µM | > 30 µM | –
N=C(N)c1ccc(CNC(=O)Cn2c(-c3ccccc3)c(Cl)nc(NCCc3ccc(Br)cc3)c2=O)cc1 [1507-06] | – | – | 20 µM | > 30 µM | –
N=C(N)c1ccc(CNC(=O)Cn2c(-c3ccccc3)c(Cl)nc(NC(Cc3ccccc3)c3ccccc3)c2=O)cc1 (stereo not drawn) [1507-07] | – | – | – | > 30 µM | 25%
COc1ccc(CCNc2nc(Cl)c(-c3ccccc3)n(CC(=O)NCc3ccc(C(=N)N)cc3)c2=O)cc1 [1507-11] | – | – | 3 µM | > 30 µM | –
COc1cccc(CCNc2nc(Cl)c(-c3ccccc3)n(CC(=O)NCc3ccc(C(=N)N)cc3)c2=O)c1 [1507-12] | – | – | 6.7 µM | > 30 µM | –
COc1ccc(CNc2nc(Cl)c(-c3ccccc3)n(CC(=O)NCc3ccc(C(=N)N)cc3)c2=O)cc1 [1507-13] | – | – | 26.7 µM | > 30 µM | –
N=C(N)c1ccc(CNC(=O)Cn2c(-c3ccccc3)c(Cl)nc(NCc3ccccc3C(F)(F)F)c2=O)cc1 [1507-15] | – | – | 12 µM | > 30 µM | –
N=C(N)c1ccc(CNC(=O)Cn2c(-c3ccccc3)c(Cl)nc(NCCc3cccs3)c2=O)cc1 [1507-18] | – | – | – | > 30 µM | –
N=C(N)c1ccc(CNC(=O)Cn2c(-c3ccccc3)c(Cl)nc(NCc3ccc(Cl)cc3Cl)c2=O)cc1 [1507-22] | – | – | – | > 30 µM | 45%
N=C(N)c1ccc(CNC(=O)Cn2c(-c3ccccc3)c(Cl)nc(NC3CCCC3)c2=O)cc1 [1507-25] | – | – | 1.6 µM | > 30 µM | –
N=C(N)c1ccc(CNC(=O)Cn2c(-c3ccccc3)c(Cl)nc(NCc3ccc(F)cc3F)c2=O)cc1 [1507-26] | – | – | 20.5 µM | > 30 µM | –
N=C(N)c1ccc(CNC(=O)Cn2c(-c3ccccc3)c(Cl)nc(NCc3cccc4ccccc34)c2=O)cc1 [1507-28] | – | – | – | > 30 µM | 38%
N=C(N)c1ccc(CNC(=O)Cn2c(-c3ccccc3)c(Cl)nc(NC3CCCCCC3)c2=O)cc1 [1507-29] | 5.8 µM | 4% | – | – | –
N=C(N)c1ccc(CNC(=O)Cn2c(-c3ccccc3)c(Cl)nc(NCc3ccc(Br)cc3)c2=O)cc1 [1507-30] | – | – | 13.4 µM | > 30 µM | –
N=C(N)c1ccc(CNC(=O)Cn2c(-c3ccccc3)c(Cl)nc(NC3CC3)c2=O)cc1 [1507-31] | – | – | 3.7 µM | > 30 µM | –
CC(C)CNc1nc(Cl)c(-c2ccccc2)n(CC(=O)NCc2ccc(C(=N)N)cc2)c1=O [1507-32] | 21.3 µM | – | – | > 30 µM | –
C[C@H](Nc1nc(Cl)c(-c2ccccc2)n(CC(=O)NCc2ccc(C(=N)N)cc2)c1=O)c1ccccc1 [1507-34] | – | – | 8.5 µM | > 30 µM | –
N=C(N)c1ccc(CNC(=O)Cn2c(-c3ccccc3)c(Cl)nc(NC3CCS(=O)(=O)C3)c2=O)cc1 (stereo not drawn) [1507-36] | 13.8 µM | 0% | – | – | –
N=C(N)c1ccc(CNC(=O)Cn2c(-c3ccccc3)c(Cl)nc(NCc3cccc(Cl)c3)c2=O)cc1 [1507-38] | – | – | 16 µM | > 30 µM | –
N=C(N)c1ccc(CNC(=O)Cn2c(-c3ccccc3)c(Cl)nc(NCc3cccc(F)c3)c2=O)cc1 [1507-42] | – | – | 11.6 µM | > 30 µM | –
Cc1ccc(CCNc2nc(Cl)c(-c3ccccc3)n(CC(=O)NCc3ccc(C(=N)N)cc3)c2=O)cc1 [1507-45] | – | – | 7.3 µM | > 30 µM | –
CCCCNc1nc(Cl)c(-c2ccccc2)n(CC(=O)NCc2ccc(C(=N)N)cc2)c1=O [1512-14] | 3.2 µM | 7% | – | – | –
N=C(N)c1ccc(CNC(=O)Cn2c(-c3ccccc3)c(Cl)nc(NC3CCCCCC3)c2=O)cc1 [1512-16] | 6.5 µM | 10% | – | – | –
N=C(N)c1ccc(CNC(=O)Cn2c(-c3ccccc3)c(Cl)nc(NC3CCS(=O)(=O)C3)c2=O)cc1 (stereo not drawn) [1512-19] | 14.3 µM | 3% | – | – | –
N=C(N)c1ccc(CNC(=O)Cn2c(-c3cccc(C(F)(F)F)c3)c(Cl)nc(NCc3ccccc3)c2=O)cc1 [1515-01] | – | – | 7 µM | > 30 µM | –
COc1ccccc1-c1c(Cl)nc(NCc2ccccc2)c(=O)n1CC(=O)NCc1ccc(C(=N)N)cc1 [1515-02] | – | – | 3.8 µM | > 30 µM | –
